pIC50: −log10 of the molar value. Values after ≈ are worked out from the molar mass of the structure shown.
Key:
[1] = system: HIV-1, isolate III B; experiment: Test 2: inhibition of the growth of HIV-1 in tissue culture cells (CEM-SS, syncytia formation); format: cell-based; conditions: Human immunodeficiency virus 1, 168 h, 7 days, read-out: HIVMIC IC50
Source text: TEST 2-INHIBITION OF THE GROWTH OF HIV-1 IN TISSUE CULTURE CELLS
This test measured the capability of the compounds to inhibit the growth of HIV-1 in tissue culture cells. CEM-SS cells (human T-lymphocyte derived tissue culture cells) were infected with HIV-1, isolate III B which was produced in tissue culture. After 7 days, the virus has killed the cells as monitored by extensive syncytia formation (cell fusion). The test measured the capability of the chemical synthetic compounds to prevent syncytia formation and cell death. CEM cells were grown at 37° C. in an atmosphere of 5% CO2. HIV isolate III B was prepared by growth in and crude purification from CEM cells. The chemical synthetic compound was added to 96 well microtiter plates and diluted in varying steps across the wells of the plate. Cells and virus were added to each well and the concentration of the chemical synthetic compound required to inhibit syncytia formation by 50% (the IC50) after 7 days was determined. The viability of CEM cells which are not infected with HIV-1 isolate III B was simultaneously determined by the MTT assay, as described in Mossman, J. Immunolog. Methods 65:55-63, 1983, which is herein incorporated by reference.

[2] = target: T1, HIV1 protease (Human immunodeficiency virus type 1 group M subtype B, UniProt P04585); experiment: Test 1: inhibition of proteolytic activity of HIV-1 protease (HPLC); format: biochemical; parameters: proteolytic activity of HIV-1 protease; conditions: HPLC; HIV Substrate III; read-out: Enzyme Assays (HPLC) IC50
Method: TEST I-INHIBITION OF PROTEOLYTIC ACTIVITY OF HIV-1-PROTEASE
The ability of compounds of the invention to inhibit the proteolytic activity of HIV-1 protease was determined by using the method of Louis, et al., Biochem. Biophys. Res. Comm. 159:87-94, (1989), which is herein incorporated by reference. In using the method of Louis et al., HIV Substrate III, His-Lys-Ala-Arg-VaI-Leu-pNO2 Phe-Glu-Ala-Nle-Ser-NH2 purchased from Bachem Bioscience, Inc. Philadelphia, Pa. was used in place of the nonapeptide substrate […]amide.

[3] = target: T1, HIV1 protease; experiment: Test 3: inhibition of proteolytic activity of HIV-1 protease by scintillation proximity assay (SPA); format: biochemical; conditions: SPA; room temperature, 40 minutes; read-out: Enzyme Assays (SPA) IC50
Source text: TEST 3-INHIBITION OF PROTEOLYTIC ACTIVITY OF HIV-1-PROTEASE AS DETERMINED BY SCINTILLATION […] ASSAY (SPA).
This is an alternative assay to test #1 and is used to determine the ability of compounds to inhibit the HIV1 protease activity. The SPA assay for HIV1 protease has been developed by Amersham Corporation, Arlington Heights, Ill., and is available for commercial use. In this system the substrate for HIV1 protease, AcN-(I^125)[…]SPA bead, is cleaved by the HIV1 protease at the Phe-Phe bond releasing the I^125 -labelled peptide fragment from the SPA bead. This event causes removal of detectable signal from the microsphere bead indicated by reduction in radioactivity (measured in CPM), which is proportional to the proteolytic activity. The substrate, and the HIV 1 protease were incubated in presence of synthetic compound in various dilutions at room temperature for 40 minutes, and the concentration of the compound required to inhibit the proteolytic activity by 50% (IC50) was determined.

Row | SMILES | IC50 [1] | pIC50 [2] | pIC50 [3]
1 | CC(C)[C@H](NC(=O)c1ccc2ccccc2n1)C(=O)N[C@@H](Cc1ccccc1)[C@@H](O)CSc1ccccc1C(=O)NC(C)(C)C [Compound 49] | 19.4 µg/mL (≈ 30.9 µM) | 7.10 | –
2 | CC(C)(C)NC(=O)c1ccccc1OC[C@@H](O)[C@H](Cc1ccccc1)NC(=O)[C@H](CC(N)=O)NC(=O)c1ccc2ccccc2n1 [Compound 5] | 1.77 µg/mL (≈ 2.83 µM) | 8.10 | –
3 | CC(C)(C)NC(=O)c1ccccc1OC[C@H](O)[C@H](Cc1ccccc1)NC(=O)[C@H](CC(N)=O)NC(=O)c1cnc2ccccc2n1 [Compound 59] | 1.41 µg/mL (≈ 2.25 µM) | 8.30 | –
4 | CC(C)(C)NC(=O)c1ccccc1SC[C@H](O)[C@H](Cc1ccccc1)NC(=O)[C@H](CC(N)=O)NC(=O)c1ccc2ccccc2n1 [Compound 2] | 7.99 µg/mL (≈ 12.4 µM) | > 6.30 | –
5 | CC(C)(C)NC(=O)c1ccccc1OC[C@H](O)[C@H](Cc1ccccc1)NC(=O)[C@H](CC(N)=O)NC(=O)c1ccc2ccccc2n1 [Compound 4] | 1.7 µg/mL (≈ 2.72 µM) | 8.00 | –
6 | CC(C)(C)NC(=O)c1ccccc1OC[C@H](O)[C@H](Cc1ccccc1)NC(=O)[C@H](CC(N)=O)NC(=O)OCc1ccccc1 [IN 1] | 4.95 µg/mL (≈ 8.19 µM) | – | 7.10
7 | CC(C)(C)NC(=O)c1ccccc1SC[C@H](O)[C@H](Cc1ccc(O)cc1)NC(=O)[C@H](CC(N)=O)NC(=O)c1ccc2ccccc2n1 [Compound 79] | 9.1 µg/mL (≈ 13.8 µM) | – | < 6.30
8 | CCC(C)[C@H](NC(=O)c1ccc2ccccc2n1)C(=O)N[C@@H](Cc1ccccc1)[C@@H](O)CSc1ccccc1C(=O)NC(C)(C)C (stereo partly drawn) [Compound 35] | 2.1 µg/mL (≈ 3.28 µM) | 7.59 | –
9 | CC(C)(C)NC(=O)c1ccccc1SC[C@@H](O)[C@H](Cc1ccccc1)NC(=O)[C@H](CC(N)=O)NC(=O)c1ccc2ccccc2n1 [Compound 3] | 0.537 µg/mL (≈ 0.837 µM) | 7.27 | –
10 | CC(C)(C)NC(=O)c1ccccc1SC[C@H](O)[C@H](Cc1ccccc1)NC(=O)[C@H](CC(N)=O)NC(=O)c1ccc2ccccc2c1 [Compound 52] | 8.58 µg/mL (≈ 13.4 µM) | – | 6.41

Continued, values first:

Row | IC50 [1] | pIC50 [2] | pIC50 [3] | SMILES
11 | 28.1 µg/mL (≈ 43.8 µM) | 6.40 | – | CCCCNC(=O)c1ccccc1SC[C@H](O)[C@H](Cc1ccccc1)NC(=O)[C@H](CC(N)=O)NC(=O)c1ccc2ccccc2n1 [Compound 8]
12 | 5.69 µg/mL (≈ 8.87 µM) | 7.30 | – | CC(C)(C)NC(=O)c1ccccc1OC[C@H](O)[C@H](Cc1ccccc1)NC(=O)[C@H](CC(N)=O)NC(=O)c1ccc2ccccc2[n+]1[O-] [Compound 7]
13 | 5.07 µg/mL (≈ 8 µM) | 6.52 | – | CC(C)(C)NC(=O)C1CCCC1SCC(O)[C@H](Cc1ccccc1)NC(=O)[C@H](CC(N)=O)NC(=O)c1ccc2ccccc2n1 (stereo partly drawn) [Compound 13]
14 | 6.08 µg/mL (≈ 9.73 µM) | 7.22 | – | CCC(C)[C@H](NC(=O)c1ccc2ccccc2n1)C(=O)N[C@@H](Cc1ccccc1)[C@@H](O)COc1ccccc1C(=O)NC(C)(C)C (stereo partly drawn) [Compound 37]
15 | 6.26 µg/mL (≈ 9.57 µM) | 7.13 | – | NC(=O)C[C@H](NC(=O)c1ccc2ccccc2n1)C(=O)N[C@@H](Cc1ccccc1)[C@@H](O)CSC1CCCC1C(=O)Nc1ccccc1 (stereo partly drawn) [Compound 20]
